Series [1] has as its system Calu-3. Briefly: Cytotoxicity against human Calu-3 cells assessed as reduction in cell viability. The format is functional.
Series [2] addresses Transmembrane protease serine 2 (Homo sapiens, UniProt O15393). The series can be described thus: Inhibition of TMPRSS2 (106 to 492 residues) (unknown origin) using Boc-QAR-AMC as substrate measured for 20 mins by spectrophotometer analysis.
For series [3], the system named is Calu-3. Briefly: Cytotoxicity against human Calu-3 cells assessed as reduction in cell viability upto 500 uM measured after 48 hrs by Hoechst 33342 staining based analysis. The format is toxicity. The following applies: calu-3, 48 h.
Series [4] has as its system SARS-CoV-2. The series can be described thus: Antiviral activity against SARS-CoV-2 B.1.1.7 infected in human Calu-3 cells assessed as inhibition of viral infection preincubated for 1 hr followed by viral infection measured after 48 hrs by Hoechst 33342 staining based analysis. The following applies: Severe acute respiratory syndrome coronavirus 2, B.1.1.7, Calu-3. Type of series: functional, organism-based.

Series [5] relates to SARS-CoV-2. The series can be described thus: Antiviral activity against SARS-CoV-2 B.1.1.7 infected in human Caco-2 cells assessed as inhibition of viral infection preincubated for 1 hr followed by viral infection measured after 48 hrs by Hoechst 33342 staining based analysis. The format is functional, organism-based. The following applies: Severe acute respiratory syndrome coronavirus 2, time 49.0 hrs.

Active and inactive are the calls of the source. No cut-off for these calls is given here.

Sequence of Transmembrane protease serine 2 (O15393 1-255 limits assumed): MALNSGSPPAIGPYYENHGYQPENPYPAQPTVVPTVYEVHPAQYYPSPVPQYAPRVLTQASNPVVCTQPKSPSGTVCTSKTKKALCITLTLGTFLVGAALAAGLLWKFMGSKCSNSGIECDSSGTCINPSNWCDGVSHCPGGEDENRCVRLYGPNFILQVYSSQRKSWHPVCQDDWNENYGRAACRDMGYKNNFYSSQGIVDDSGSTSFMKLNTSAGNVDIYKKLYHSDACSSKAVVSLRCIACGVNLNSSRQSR
Sequence of Transmembrane protease serine 2 (O15393 256-492 limits assumed): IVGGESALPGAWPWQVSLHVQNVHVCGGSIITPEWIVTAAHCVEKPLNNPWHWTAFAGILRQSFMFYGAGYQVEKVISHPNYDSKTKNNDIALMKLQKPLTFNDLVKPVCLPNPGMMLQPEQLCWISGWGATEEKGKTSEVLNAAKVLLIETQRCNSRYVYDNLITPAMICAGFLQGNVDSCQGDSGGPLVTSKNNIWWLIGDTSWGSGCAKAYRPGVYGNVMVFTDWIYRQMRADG

In the case of `N=C(N)c1ccc(OCCCOc2ccc(C(=N)N)cc2)cc1` [PROPAMIDINE], the CC50 (usually the concentration that lowers cell viability or growth by half) with Calu-3 [1] is more than 500 µM.

As to `Cc1ccc(C(=O)Nc2ccc3c(c2)CCN(C(=N)N)C3)cc1`, in series [2], half-maximal inhibition (IC50) required 4 µM.

As to `N=C(N)N1CCc2cc(NC(=O)c3ccc4ccccc4c3)ccc2C1`, the IC50 (usually the concentration at which inhibition is half-maximal) in series [2] was determined as 4 µM.

As for `N=C(N)N1CCc2cc(NC(=O)c3cccc4ccccc34)ccc2C1`, the IC50 in series [2] is 3.4 µM.

Consider `N=C(N)N1CCc2ccccc2C1` [DEBRISOQUIN], for which the CC50 in the series with Calu-3 [1] is more than 500 µM. Moreover, the IC50 came out at 23 µM in series [2] and 22 µM with SARS-CoV-2 [4]. Moreover, the Activity result with Calu-3 [3] is “Non-Toxic”. Further, the result with SARS-CoV-2 [5] was inactive.

These data come from ChEMBL document CHEMBL5247670, “TMPRSS2 Inhibitor Discovery Facilitated through an In Silico and Biochemical Screening Platform” (ACS Med Chem Lett, 2023).
